Data taken from patent US20230398130A1, “METHODS AND COMPOSITIONS FOR DIFFERENTIATING STEM CELLS” (Massachusetts Institute of Technology, priority 2020, published 2023).

Experiments:
ISC-enriched organoids [1] = assay: Primary screen, 384-well 2.5-D organoid differentiation (ENR+CD, 6 days): basal lysozyme secretion (LYZ.NS); assay type: cell-based, murine; conditions: for Dose.FC.LYZ.NS: FC vs plate median; for Z.LYZ.NS: standard z score of FC; for SSMD.LYZ.NS: strictly standardized mean difference
Excerpt: (§1) High-throughput screening.

ISC-enriched organoids [2] = assay: Primary screen, 384-well 2.5-D organoid differentiation (ENR+CD, 6 days): carbachol-induced lysozyme secretion (LYZ.S); assay type: cell-based, murine; conditions: for Dose.FC.LYZ.S: FC vs plate median; for Z.LYZ.S: standard z score; for SSMD.LYZ.S: strictly standardized mean difference
Excerpt: as §1

ISC-enriched organoids [3] = assay: Primary screen, 384-well 2.5-D organoid differentiation (ENR+CD, 6 days, Target Selective Inhibitor Library, vs whole-plate median): ATP (CellTiter-Glo 3D, CTG); conditions: for Dose.FC.CTG: FC vs plate median; for Z.CTG: standard z score of FC; for SSMD.CTG: strictly standardized mean difference
[4] = primary screen, 1st of the 4 dose lines of the treatment (dose not given)
[5] = primary screen, 2nd of the 4 dose lines of the treatment (dose not given)
[6] = primary screen, 3rd of the 4 dose lines of the treatment (dose not given)
[7] = primary screen, 4th of the 4 dose lines of the treatment (dose not given)

SMILES | Dose.FC.LYZ.NS (ISC-enriched organoids [1]; Dose 0.08 uM, primary screen) | Z.LYZ.NS (ISC-enriched organoids [1]; Dose 0.08 uM) | Dose.FC.LYZ.NS (ISC-enriched organoids [1]; Dose 0.40 uM, primary screen) | Z.LYZ.NS (ISC-enriched organoids [1]; Dose 0.40 uM) | Dose.FC.LYZ.NS (ISC-enriched organoids [1]; Dose 2.00 uM, primary screen) | Z.LYZ.NS (ISC-enriched organoids [1]; Dose 2.00 uM) | Dose.FC.LYZ.NS (ISC-enriched organoids [1]; Dose 10.00 uM, primary screen) | Z.LYZ.NS (ISC-enriched organoids [1]; Dose 10.00 uM) | Dose.FC.LYZ.S (ISC-enriched organoids [2]; Dose 0.08 uM, primary screen) | Dose.FC.LYZ.S (ISC-enriched organoids [2]; Dose 0.40 uM, primary screen) | Dose.FC.LYZ.S (ISC-enriched organoids [2]; Dose 2.00 uM, primary screen) | Dose.FC.LYZ.S (ISC-enriched organoids [2]; Dose 10.00 uM, primary screen) | Dose.FC.CTG (ISC-enriched organoids [3]; Dose 0.08 uM, primary screen) | Z.CTG (ISC-enriched organoids [3]; Dose 0.08 uM) | Dose.FC.CTG (ISC-enriched organoids [3]; Dose 0.40 uM, primary screen) | Z.CTG (ISC-enriched organoids [3]; Dose 0.40 uM) | Dose.FC.CTG (ISC-enriched organoids [3]; Dose 2.00 uM, primary screen) | Z.CTG (ISC-enriched organoids [3]; Dose 2.00 uM) | Dose.FC.CTG (ISC-enriched organoids [3]; Dose 10.00 uM, primary screen) | Z.CTG (ISC-enriched organoids [3]; Dose 10.00 uM) | further results
S=C=Nc1cccc(NC(=S)NCCCCNC(=S)Nc2cccc(N=C=S)c2)c1 [MRS 2578] | 0.116 log 2 fold change | 1.011 | 0.036 log 2 fold change | 0.311 | 0.031 log 2 fold change | 0.270 | 0.032 log 2 fold change | 0.276 | 0.095 log 2 fold change | 0.067 log 2 fold change | 0.023 log 2 fold change | 0.013 log 2 fold change | −0.142 log 2 fold change | −0.339 | 0.061 log 2 fold change | 0.146 | −0.159 log 2 fold change | −0.381 | −0.228 log 2 fold change | −0.544 | 
O=[N+]([O-])C=Cc1ccc2c(c1)OCO2 | 0.057 log 2 fold change | 0.499 | −0.010 log 2 fold change | −0.088 | 0.040 log 2 fold change | 0.347 | −0.150 log 2 fold change | −1.307 | 0.076 log 2 fold change | 0.100 log 2 fold change | 0.019 log 2 fold change | −0.179 log 2 fold change | −0.016 log 2 fold change | −0.037 | 0.061 log 2 fold change | 0.146 | 0.062 log 2 fold change | 0.148 | −0.197 log 2 fold change | −0.469 | SSMD.LYZ.NS (ISC-enriched organoids [1]; [4]): 0.518; SSMD.LYZ.NS (ISC-enriched organoids [1]; [5]): −0.082; SSMD.LYZ.NS (ISC-enriched organoids [1]; [6]): 0.270; SSMD.LYZ.NS (ISC-enriched organoids [1]; [7]): −0.670; Z.LYZ.S (ISC-enriched organoids [2]; [4]): 0.493; Z.LYZ.S (ISC-enriched organoids [2]; [5]): 0.648; Z.LYZ.S (ISC-enriched organoids [2]; [6]): 0.124; Z.LYZ.S (ISC-enriched organoids [2]; [7]): −1.157; SSMD.LYZ.S (ISC-enriched organoids [2]; [4]): 0.451; SSMD.LYZ.S (ISC-enriched organoids [2]; [5]): 0.331; SSMD.LYZ.S (ISC-enriched organoids [2]; [6]): 0.073; SSMD.LYZ.S (ISC-enriched organoids [2]; [7]): −0.676; SSMD.CTG (ISC-enriched organoids [3]; [4]): −0.026; SSMD.CTG (ISC-enriched organoids [3]; [5]): 0.148; SSMD.CTG (ISC-enriched organoids [3]; [6]): 0.166; SSMD.CTG (ISC-enriched organoids [3]; [7]): −0.338
CN(C)C(=O)[C@H](O)[C@H](Cc1ccccc1)NC(=O)c1cc2cc(Cl)ccc2[nH]1 [CP-91149] |  | 1.538 |  | −0.289 |  | 0.245 |  | −0.498 |  |  |  |  |  | 0.073 |  | −0.056 |  | −0.234 |  | −0.239 | Dose.FC.LYZ.NS (ISC-enriched organoids [1]; Dose 0.08 uM, ENR+CD, 6 days): 0.177 log 2 fold change; Dose.FC.LYZ.NS (ISC-enriched organoids [1]; Dose 0.40 uM, ENR+CD, 6 days): −0.033 log 2 fold change; Dose.FC.LYZ.NS (ISC-enriched organoids [1]; Dose 2.00 uM, ENR+CD, 6 days): 0.028 log 2 fold change; Dose.FC.LYZ.NS (ISC-enriched organoids [1]; Dose 10.00 uM, ENR+CD, 6 days): −0.057 log 2 fold change; Dose.FC.LYZ.S (ISC-enriched organoids [2]; Dose 0.08 uM, ENR+CD, 6 days): 0.186 log 2 fold change; Dose.FC.LYZ.S (ISC-enriched organoids [2]; Dose 0.40 uM, ENR+CD, 6 days): 0.055 log 2 fold change; Dose.FC.LYZ.S (ISC-enriched organoids [2]; Dose 2.00 uM, ENR+CD, 6 days): −0.121 log 2 fold change; Dose.FC.LYZ.S (ISC-enriched organoids [2]; Dose 10.00 uM, ENR+CD, 6 days): −0.097 log 2 fold change; Dose.FC.CTG (ISC-enriched organoids [3]; Dose 0.08 uM, ENR+CD, 6 days): 0.031 log 2 fold change; Dose.FC.CTG (ISC-enriched organoids [3]; Dose 0.40 uM, ENR+CD, 6 days): −0.023 log 2 fold change; Dose.FC.CTG (ISC-enriched organoids [3]; Dose 2.00 uM, ENR+CD, 6 days): −0.098 log 2 fold change; Dose.FC.CTG (ISC-enriched organoids [3]; Dose 10.00 uM, ENR+CD, 6 days): −0.100 log 2 fold change
C#Cc1cccc(Nc2ncnc3cc(OCCOC)c(OCCO)cc23)c1 [OSI-420] | 0.115 log 2 fold change | 1.002 | −0.224 log 2 fold change | −1.948 | −0.287 log 2 fold change | −2.498 | −0.325 log 2 fold change | −2.833 | 0.059 log 2 fold change | −0.221 log 2 fold change | −0.381 log 2 fold change | −0.374 log 2 fold change | 0.106 log 2 fold change | 0.254 | −0.130 log 2 fold change | −0.311 | −1.263 log 2 fold change | −3.016 | −1.100 log 2 fold change | −2.627 | 
